The values that follow come from patent US20150011751A1, “NOVEL TRIAZINE DERIVATIVE” (CARNA BIOSCIENCES, INC., priority 2012, published 2015).

pIC50: −log10 of the molar value.

For this assay, the target named is Dephosphorylated BTK (Homo sapiens, UniProt Q06187). The experiment in a line: Test of activity inhibition against dephosphorylated BTK (mobility shift assay).
Dephosphorylated BTK, sequence (Q06187 whole entry): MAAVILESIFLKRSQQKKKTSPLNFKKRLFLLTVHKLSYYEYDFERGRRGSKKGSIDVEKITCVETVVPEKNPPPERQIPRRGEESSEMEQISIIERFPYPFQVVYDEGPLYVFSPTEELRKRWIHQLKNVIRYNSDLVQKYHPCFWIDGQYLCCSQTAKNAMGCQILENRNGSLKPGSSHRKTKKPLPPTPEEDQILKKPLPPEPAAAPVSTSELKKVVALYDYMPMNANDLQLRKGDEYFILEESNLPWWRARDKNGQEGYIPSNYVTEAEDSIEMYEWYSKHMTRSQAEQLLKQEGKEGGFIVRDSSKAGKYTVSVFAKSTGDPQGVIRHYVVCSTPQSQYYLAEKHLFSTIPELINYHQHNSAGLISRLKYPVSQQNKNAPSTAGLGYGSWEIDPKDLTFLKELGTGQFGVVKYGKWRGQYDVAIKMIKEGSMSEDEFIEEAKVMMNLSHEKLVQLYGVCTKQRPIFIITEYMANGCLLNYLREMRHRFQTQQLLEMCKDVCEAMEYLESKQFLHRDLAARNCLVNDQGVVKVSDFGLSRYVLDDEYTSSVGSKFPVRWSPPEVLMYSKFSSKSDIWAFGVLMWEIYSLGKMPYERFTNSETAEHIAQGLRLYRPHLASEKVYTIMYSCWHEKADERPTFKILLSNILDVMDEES
Regarding `Cc1c(NC(=O)c2ccc(C(C)(C)C)cc2)cccc1-c1nc(N)nc(Nc2ccc(N3C[C@@H](C)O[C@@H](C)C3)cc2)n1` [Example 85, N-[3-(4-Amino-6-{[4-((2S, 6R)-2,6-dimethyl-morpholino)phenyl]ami-no}-1,3,5-triazin-2-yl)-2-methylphenyl]-4-(tert-butyl)benzamide], the pIC50 was 8.24.
To `Cc1c(NC(=O)c2ccc(C(C)(C)C)cc2)cccc1-c1nc(N)nc(Nc2ccc(N3CCCOCC3)cc2)n1` [Example 86, N-[3-(4-{[4-(1,4-Oxaze-pan-4-yl)phenyl]amino}-6-amino-1,3,5-tria-zin-2-yl)-2-methyl-phenyl]-4-(tert-butyl)benzamide] belongs 8.40.
To `Cc1c(NC(=O)c2ccc(C(C)(C)C)cc2)cccc1-c1nc(N)nc(Nc2ccc(N3CCC(O)CC3)cc2)n1` [Example 87, N-[3-(4-Amino-6-{[4-(4-hydroxypiperidin-1-yl)phenyl]amino}-1,3,5-triazin-2-yl)-2-meth-ylphenyl]-4-(tert-butyl)benzamide] belongs 8.85; to `Cc1c(NC(=O)c2ccc(C(C)(C)C)cc2)cccc1-c1nc(N)nc(Nc2ccc(N3CCNCC3)cc2)n1` [Example 88, N-[3-(4-Amino-6-{[4-(piperazin-1-yl)phenyl]amino}-1,3,5-triazin-2-yl)-2-methylphenyl]-4-(tert-butyl)benza-mide], 8.74; to `CN1CCN(C)C(c2ccc(Nc3nc(N)nc(-c4cccc(NC(=O)c5ccc(C(C)(C)C)cc5)c4CO)n3)cc2)C1=O` (centres unmarked) [Example 89, N-[3-(4-Amino-6-{[4-(1,4-dimethyl-3-oxo-piperazin-2-yl)phenyl]ami-no}-1,3,5-triazin-2-yl)-2-(hydroxymethyl)phenyl]-4-(tert-butyl) benzamide], 9.22.
For `COCCOc1ccc(Nc2nc(N)nc(-c3cccc(NC(=O)c4ccc(C(C)(C)C)cc4)c3CO)n2)cc1OCCOC` [Example 90, N-[3-(4-Amino-6-{[3,4-bis(2-methoxyethoxy)phenyl]amino}-1,3,5-tri-azin-2-yl)-2-(hydroxy-methyl)phenyl]-4-(tert-butyl)benzamide], the pIC50 is 9.15.
To `COc1cc(Nc2nc(N)nc(-c3cccc(NC(=O)c4ccc(C(C)(C)C)cc4)c3CO)n2)cc(OC)c1OC` [Example 91, N-(3-{4-Amino-6-[(3,4,5-trimethoxyphenyl)ami-no]-1,3,5-triazin-2-yl}-2-(hydroxymethyl)phenyl)-4-(tert-butyl) benzamide] belongs 8.96; to `Cc1c(NC(=O)c2ccc(C(C)(C)C)cc2)cccc1-c1nc(N)nc(Nc2ccc(N3CCOC(CO)C3)cc2)n1` (centres unmarked) [Example 92, N-{3-[4-Amino-6-({4-[2-(hydroxymethyl)morpho-lin]phenyl}amino)-1,3,5-triazin-2-yl]-2-methylphenyl}-4-(tert-butyl)benzamide], 9.05; to `Cc1c(NC(=O)c2ccc(C(C)(C)C)cc2)cccc1-c1nc(N)nc(Nc2ccc(N3CCN(CCO)CC3)cc2)n1` [Example 93, N-{3-[4-Amino-6-({4-[4-(2-hydroxyethyl)piperazin-1-yl]phenyl}ami-no)-1,3,5-triazin-2-yl]-2-methylphenyl}-4-(tert-butyl)benzamide], 8.89.
To `CC(C)(C)c1ccc(C(=O)Nc2cccc(-c3nc(N)nc(Nc4ccc(CN5CCC(O)CC5)cc4)n3)c2CO)cc1` [Example 94, N-{3-[4-Amino-6-({4-[(4-hydroxypiperidin-1-yl)methyl]phenyl}ami-no)-1,3,5-triazin-2-yl]-2-(hydroxymethyl)phe-nyl}-4-(tert-butyl) benzamide] belongs 9.40.
With `COc1c(NC(=O)c2ccc(C(C)(C)C)cc2)cccc1-c1nc(N)nc(Nc2ccc(N3CCOCC3)cc2)n1` [Example 96, N-(3-{4-Amino-6-[(4-morpholinophenyl)amino]-1,3,5-triazin-2-yl}-2-methoxyphenyl)-4-(tert-butyl)benzamide], the pIC50 is 8.11.
To `CC(C)(C)c1ccc(C(=O)Nc2cccc(-c3nc(N)nc(Nc4ccc(N5CCOCC5)cn4)n3)c2CO)cc1` [Example 99, N-(3-{4-Amino-6-[(5-morpholinopyridin-2-yl)amino]-1,3,5-triazin-2-yl}-2-(hydroxymeth-yl)phenyl)-4-(tert-butyl)benzamide] belongs 7.97; to `Nc1nc(Nc2ccc(N3CCOCC3)cc2)nc(-c2cccc(NC(=O)c3ccc4c(c3)CCCC4)c2CO)n1` [Example 102, N-(3-{4-Amino-6-[(4-morpholinophenyl)amino]-1,3,5-triazin-2-yl}-2-(hydroxymethyl)phe-nyl)-5,6,7,8-tetrahydro-naphthalene-2-carbox-amide], 8.06; to `CC(C)(C)OC(=O)N1CCN(c2ccc(Nc3nc(N)nc(-c4cccc(NC(=O)c5ccc(C(C)(C)C)cc5)c4CO)n3)cc2)CC1` [Example 104, tert-Butyl 4-{4-[(4-amino-6-{3-[4-(tert-butyl)benzamido]-2-(hydroxymethyl)phenyl}-1,3,5-triazin-2-yl)amino]phenyl} piperazine-1-carboxylate], 8.30.
Consider `COCCN(CCOC)Cc1ccc(Nc2nc(N)nc(-c3cccc(NC(=O)c4ccc(C(C)(C)C)cc4)c3CO)n2)cc1` [Example 105, N-(3-{4-Amino-6-[(4-{[bis (2-methoxyethyl)ami-no]methyl}phenyl)ami-no)-1,3,5-triazin-2-yl]-2-(hydroxymethyl)phenyl}-4-(tert-butyl) benzamide], for which the pIC50 was 9.05.
To `CC(C)(C)c1ccc(C(=O)Nc2cccc(-c3nc(N)nc(Nc4ccc(N5CCOC(CO)C5)cc4)n3)c2CO)cc1` (centres unmarked) [Example 106, N-{3-[4-Amino--({4-[2-(hydroxymethyl)morpho-lino]phenyl}amino)-1,3,5-triazin-2-yl]-2-(hydroxymethyl)phenyl}-4-(tert-butyl)benzamide] belongs 9.15; to `CC(C)(C)c1ccc(C(=O)Nc2cccc(-c3nc(N)nc(Nc4ccc(N5CCC(O)CC5)cc4)n3)c2CO)cc1` [Example 107, N-[3-(4-Amino-6-{[4-(4-hydroxypiperidin-1-yl)phenyl]amino}-1,3,5-triazin-2-yl)-2-(hy-droxymethyl)phenyl]-4-(tert-butyl)benzamide], 9.10.
To `CC(=O)OCc1c(NC(=O)c2ccc(C(C)(C)C)cc2)cccc1-c1nc(N)nc(Nc2ccc(O)cc2)n1` [Example 110, 2-{4-Amino-6-[(4-hydroxy-phenyl)amino]-1,3,5-triazin-2-yl}-6-[4-(tert-butyl)benzamido] benzyl acetate] belongs 7.75; to `CC(C)(C)c1ccc(C(=O)Nc2cccc(-c3nc(N)nc(Nc4ccc(CO)cc4)n3)c2CO)cc1` [Example 111, N-[3-(4-Amino-6-{[4-(hydroxymethyl)phenyl]amino}-1,3,5-triazin-2-yl)-2-(hydroxymeth-yl)phenyl]-4-(tert-butyl) benzamide], 9.00; to `CC(C)(C)c1ccc(C(=O)Nc2cccc(-c3nc(N)nc(Nc4ccc(NS(C)(=O)=O)cc4)n3)c2CO)cc1` [Example 112, N-[3-(4-Amino-6-{[4-(meth-ylsulfonamido)phe-nyl]amino}-1,3,5-tria-zin-2-yl)-2-(hydroxymeth-yl)phenyl]-4-(tert-butyl)benzamide], 8.96.
To `CC(C)(C)c1ccc(C(=O)Nc2cccc(-c3nc(N)nc(Nc4ccc(O)c(F)c4)n3)c2CO)cc1` [Example 113, N-(3-{4-Amino-6-[(3-fluoro-4-hydroxyphenyl)amino]-1,3,5-triazin-2-yl}-2-(hydroxymeth-yl)phenyl)-4-(tert-butyl)benzamide] belongs 8.59; to `CC(C)(C)c1ccc(C(=O)Nc2cccc(-c3nc(N)nc(Nc4ccc(N5CCNC(=O)C5)cc4)n3)c2CO)cc1` [Example 114, N-[3-(4-Amino-6-{[4-(3-oxopiperazin-1-yl)phe-nyl]amino}-1,3,5-tri-azin-2-yl)-2-(hydroxy-methyl)phenyl]-4-(tert-butyl)benzamide], 9.00.
As to `CC(C)(C)c1ccc(C(=O)Nc2cccc(-c3ncnc(Nc4ccc(C(=O)N5CCOCC5)cc4)n3)c2CO)cc1` [Example 115, 4-(tert-Butyl)-N-[2-(hy-droxymethyl)-3-(4-{[4-(morpholine-4-carbo-nyl)phenyl]amino}-1,3,5-triazin-2-yl)phe-nyl]benzamide], the pIC50 is 8.03.
To `Cc1cc(Nc2nc(N)nc(-c3cccc(NC(=O)c4ccc(C(C)(C)C)cc4)c3CO)n2)ccc1O` [Example 117, N-(3-{4-Amino-6-[(4-hy-droxy-3-methylphenyl)amino]-1,3,5-triazin-2-yl)-2-(hydroxymeth-yl)phenyl)-4-(tert-butyl)benzamide] belongs 9.05; to `CC(C)(C)c1ccc(C(=O)Nc2cccc(-c3nc(N)nc(Nc4ccc(S(N)(=O)=O)cc4)n3)c2CO)cc1` [Example 118, N-(3-{4-Amino-6-[(4-sulfa-moylphenyl)amino]-1,3,5-triazin-2-yl}-2-(hydroxymethyl)phe-nyl)-4-(tert-butyl)benz-amide], 9.10.
To `CC(=O)Nc1ccc(Nc2nc(N)nc(-c3cccc(NC(=O)c4ccc(C(C)(C)C)cc4)c3CO)n2)cc1` [Example 119, N-(3-{4-[(4-Acetamido-phenyl)amino]-6-amino-1,3,5-triazin-2-yl}-2-(hydroxymethyl)phe-nyl)-4-(tert-butyl)benz-amide] belongs 9.10; to `CC(C)(C)OC(=O)Nc1ccc(Nc2nc(N)nc(-c3cccc(NC(=O)c4ccc(C(C)(C)C)cc4)c3CO)n2)cc1` [Example 120, tert-Butyl {4-[(4-amino-6-{3-[4-(tert-butyl)benzamido]-2-(hydroxymethyl)phe-nyl}-1,3,5-triazin-2-yl)amino]phenyl}carbamate], 8.26.
Take `CC(C)(C)c1ccc(C(=O)Nc2cccc(-c3nc(N)nc(Nc4cccc(O)c4)n3)c2CO)cc1` [Example 121, N-(3-{4-Amino-6-[(3-hy-droxyphenyl)amino]-1,3,5-triazin-2-yl}-2-(hydroxymethyl)phenyl)-4-(tert-butyl)benza-mide]: the pIC50 is 8.92.
To `CC(C)(C)c1ccc(C(=O)Nc2cccc(-c3nc(N)nc(Nc4cccc(CO)c4)n3)c2CO)cc1` [Example 122, N-[3-(4-Amino-6-{[3-(hy-droxymethyl)phenyl]amino}-1,3,5-triazin-2-yl)-2-(hydroxymethyl)phenyl]-4-(tert-butyl)benzamide] belongs 9.10.

The term pIC50 denotes the IC50 on a negative log10 scale, so that one unit is a factor of ten.
